# Data taken from US8658604B2, “Template-fixed beta-hairpin peptidomimetics with protease inhibitory activity” (Polyphor Ltd, priority 2005, dated 2014).
# pIC50: −log10 of the molar value. Where a SMILES comes first, the peptide text is derived from it.
# What was measured:
# [1] = target: Coagulation Factor Xa, from uman plasma (Homo sapiens, UniProt P00742); test: Enzymatic assay, coagulation factor Xa
# [2] = target: Urokinase from human urine (Homo sapiens, UniProt P00749); test: Enzymatic assay, urokinase
# [3] = tested on: HELA cells (Acc57); test: Cytotoxicity assay (MTT reduction), HELA cells; type: cell-based; settings: Hela cells
# Method: The cytotoxicity of the peptides to HELA cells (Acc57) and COS-7 cells (CRL-1651) was determined using the MTT reduction assay [see ref. 2 and 3, below]. Briefly the method was as follows: HELA cells and COS-7 cells were seeded at 7.0×10^3 and, respectively, 4.5×10^3 cells per well and grown in 96-well microtiter plates for 24 hours at 37° C. at 5% CO2. At this point, time zero (Tz) was determined by MTT reduction (see below). The supernatant of the remaining wells was discarded, and fresh medium and the peptides in serial dilutions of 12.5, 25 and 50 μM were pipetted into the wells. Each peptide concentration was assayed in triplicate. Incubation of the cells was continued for 48 hours at 37° C. at 5% CO2. Wells were then washed once with phosphate buffered saline (PBS) and subsequently 100 μl MTT reagent (0.5 mg/ml in medium RPMI1640 and, respectively, DMEM) were added to the wells. This was incubated at 37° C. for 2 hours and subsequently the medium was aspirated and 100 μl isopropanol were added to each well. The absorbance at 595 nm of the solubilized product was measured (OD595peptide). For each concentration averages were calculated from triplicates. The percentage of growth was calculated as follows: (OD595peptide-OD595Tz-OD595Empty well)/(OD595Tz-OD595Empty well)×100% and was plotted for each peptide concentration.
# The LC 50 values (Lethal Concentration, defined as the concentration that kills 50% of the cells) were determined for each peptide by using the trend line function of EXCEL (Microsoft Office 2000) for the concentrations (50, 25, 12.5 and 0 μM), the corresponding growth percentages and the value −50, (=TREND(C50:C0,%50:%0,−50)).
# The GI 50 (Growth Inhibition) concentrations were calculated for each peptide by using a trend line function for the concentrations (50, 25, 12.5 and 0 μg/ml), the corresponding percentages and the value 50, (=TREND (C50:C0,%50:%0,50).
# [4] = target: Trypsin, from human pancreas (Homo sapiens, UniProt P07477); test: Enzymatic assay, trypsin; settings: at 100 μM
# [5] = target: T1, Elastase from human neutrophils (Homo sapiens, UniProt P08246); test: Enzymatic assay, elastase; settings: Elastase IC50
# T1 sequence (P08246 30-267): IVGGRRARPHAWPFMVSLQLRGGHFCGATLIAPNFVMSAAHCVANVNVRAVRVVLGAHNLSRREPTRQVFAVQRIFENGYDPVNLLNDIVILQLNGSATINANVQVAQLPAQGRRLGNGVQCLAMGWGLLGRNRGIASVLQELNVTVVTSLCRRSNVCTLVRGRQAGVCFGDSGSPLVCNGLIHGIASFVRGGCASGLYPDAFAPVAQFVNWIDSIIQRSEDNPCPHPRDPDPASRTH
# [6] = target: Chymotrypsin, from human pancreas (Homo sapiens, UniProt P17538); test: Enzymatic assay, chymotrypsin
# Sequence of Chymotrypsin, from human pancreas (P17538 19-263): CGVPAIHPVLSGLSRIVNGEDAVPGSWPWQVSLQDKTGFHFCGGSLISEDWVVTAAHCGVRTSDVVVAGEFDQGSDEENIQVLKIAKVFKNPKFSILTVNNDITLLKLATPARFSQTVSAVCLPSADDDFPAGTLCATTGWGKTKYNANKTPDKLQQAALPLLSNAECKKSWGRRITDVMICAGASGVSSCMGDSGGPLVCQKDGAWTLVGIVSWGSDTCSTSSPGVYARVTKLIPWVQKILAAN
# [7] = target: T2, Chymase, from human skin (Homo sapiens, UniProt P23946); test: Enzymatic assay, chymase
# T2 sequence (P23946 22-247): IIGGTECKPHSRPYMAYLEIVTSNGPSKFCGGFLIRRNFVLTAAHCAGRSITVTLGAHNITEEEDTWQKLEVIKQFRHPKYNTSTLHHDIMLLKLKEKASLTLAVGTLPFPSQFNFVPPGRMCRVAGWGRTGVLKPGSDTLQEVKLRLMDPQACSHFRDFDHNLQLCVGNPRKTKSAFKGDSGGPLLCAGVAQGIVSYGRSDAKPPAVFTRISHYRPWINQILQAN
# [8] = target: T3, CathepsinG, from human neutrophils (Homo sapiens, UniProt P08311); test: Enzymatic assay, cathepsin G; settings: Cathepsin G IC50
# T3 sequence (P08311 21-244): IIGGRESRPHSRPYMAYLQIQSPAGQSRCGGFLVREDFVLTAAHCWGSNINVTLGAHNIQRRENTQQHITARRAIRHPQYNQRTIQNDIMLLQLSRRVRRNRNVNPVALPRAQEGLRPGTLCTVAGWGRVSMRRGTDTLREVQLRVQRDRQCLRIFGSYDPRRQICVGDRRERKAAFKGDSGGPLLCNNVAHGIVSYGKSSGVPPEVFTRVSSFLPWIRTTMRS
# [9] = tested on: Tryptase, from human lung; test: Enzymatic assay, tryptase; settings: at 100 μM
# [10] = target: Thrombin, from Human Plasma (Homo sapiens, UniProt P00734); test: Enzymatic assay, thrombin
# Sequence of Coagulation Factor Xa, from uman plasma (P00742 235-488 limits assumed): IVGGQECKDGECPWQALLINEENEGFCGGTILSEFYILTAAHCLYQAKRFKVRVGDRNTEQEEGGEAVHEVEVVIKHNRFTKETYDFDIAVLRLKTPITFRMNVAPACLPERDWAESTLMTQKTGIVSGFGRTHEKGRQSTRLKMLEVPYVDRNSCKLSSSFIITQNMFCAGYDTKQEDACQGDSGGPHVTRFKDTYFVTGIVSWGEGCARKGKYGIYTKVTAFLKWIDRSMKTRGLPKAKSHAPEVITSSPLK
# Sequence of Coagulation Factor Xa, from uman plasma (P00742 41-179 limits assumed): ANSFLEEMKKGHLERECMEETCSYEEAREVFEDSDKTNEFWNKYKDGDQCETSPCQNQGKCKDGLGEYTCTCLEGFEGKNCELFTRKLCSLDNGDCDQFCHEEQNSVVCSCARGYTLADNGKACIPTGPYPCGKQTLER
Compound,FXa at 100 μM % [1] [%],Urokinase at 100 μM % [2] [%],Cytotoxicity LC50/GI50 Hela cells [3] [µM],Trypsin at 100 μM % [4] [%],pIC50 [5],pIC50 [6],Chymase at 100 μM % [7] [%],pIC50 [8],Tryptase at 100 μM % [9] [%],Thrombin at 100 μM % [10] [%]
"CCCC[C@@H]1NC(=O)[C@@H]2CCCN2C(=O)[C@H]2CCCN2C(=O)[C@H](Cc2ccc3ccccc3c2)NC(=O)[C@@H]2CSSC[C@H](NC1=O)C(=O)N[C@@H]([C@@H](C)O)C(=O)N[C@@H](C)C(=O)N[C@@H](CO)C(=O)N[C@@H]([C@@H](C)CC)C(=O)N1CCC[C@H]1C(=O)N1CCC[C@H]1C(=O)N[C@@H](CCC(N)=O)C(=O)N2 [Ex. 95] (HELM PEPTIDE1{[Nle].C.T.A.S.I.P.P.Q.C.[O=C([C@H](Cc1ccc2ccccc2c1)N[*:1])[*:2]].[dP].P}$PEPTIDE1,PEPTIDE1,2:R3-10:R3|PEPTIDE1,PEPTIDE1,1:R1-13:R2$$$V2.0)",11.3,10.3,89,8.9,7.62,4.47,0,4.41,0,0
"CCCC[C@@H]1NC(=O)[C@@H]2CCCN2C(=O)[C@H]2CCCN2C(=O)[C@H](Cc2ccccc2Cl)NC(=O)[C@@H]2CSSC[C@H](NC1=O)C(=O)N[C@@H]([C@@H](C)O)C(=O)N[C@@H](C)C(=O)N[C@@H](CO)C(=O)N[C@@H]([C@@H](C)CC)C(=O)N1CCC[C@H]1C(=O)N1CCC[C@H]1C(=O)N[C@@H](CCC(N)=O)C(=O)N2 [Ex. 96] (HELM PEPTIDE1{[Nle].C.T.A.S.I.P.P.Q.C.[O=C([C@H](Cc1ccccc1Cl)N[*:1])[*:2]].[dP].P}$PEPTIDE1,PEPTIDE1,2:R3-10:R3|PEPTIDE1,PEPTIDE1,1:R1-13:R2$$$V2.0)",0,6.2,52,7.5,7.82,4.81,0,4.67,0,3.6
"CCCC[C@@H]1NC(=O)[C@@H]2CCCN2C(=O)[C@H]2CCCN2C(=O)[C@H](CC2CCCCC2)NC(=O)[C@@H]2CSSC[C@H](NC1=O)C(=O)N[C@@H]([C@@H](C)O)C(=O)N[C@@H](C)C(=O)N[C@@H](CO)C(=O)N[C@@H]([C@@H](C)CC)C(=O)N1CCC[C@H]1C(=O)N1CCC[C@H]1C(=O)N[C@@H](CCC(N)=O)C(=O)N2 [Ex. 97] (HELM PEPTIDE1{[Nle].C.T.A.S.I.P.P.Q.C.[Cha].[dP].P}$PEPTIDE1,PEPTIDE1,2:R3-10:R3|PEPTIDE1,PEPTIDE1,1:R1-13:R2$$$V2.0)",4.8,11.9,100,9.5,7.62,4.11,0,< 4.00,0,11.6
"CCCC[C@@H]1NC(=O)[C@@H]2CCCN2C(=O)[C@H]2CCCN2C(=O)[C@H](c2ccccc2)NC(=O)[C@@H]2CSSC[C@H](NC1=O)C(=O)N[C@@H]([C@@H](C)O)C(=O)N[C@@H](C)C(=O)N[C@@H](CO)C(=O)N[C@@H]([C@@H](C)CC)C(=O)N1CCC[C@H]1C(=O)N1CCC[C@H]1C(=O)N[C@@H](CCC(N)=O)C(=O)N2 [Ex. 98] (HELM PEPTIDE1{[Nle].C.T.A.S.I.P.P.Q.C.[Phg].[dP].P}$PEPTIDE1,PEPTIDE1,2:R3-10:R3|PEPTIDE1,PEPTIDE1,1:R1-13:R2$$$V2.0)",0,0,78,0,7.68,4.41,0,< 4.00,0,5.2
"CCCCCC[C@@H]1NC(=O)[C@@H]2CCCN2C(=O)[C@H]2CCCN2C(=O)[C@H](Cc2ccc(O)cc2)NC(=O)[C@@H]2CSSC[C@H](NC1=O)C(=O)N[C@@H]([C@@H](C)O)C(=O)N[C@@H](C)C(=O)N[C@@H](CO)C(=O)N[C@@H]([C@@H](C)CC)C(=O)N1CCC[C@H]1C(=O)N1CCC[C@H]1C(=O)N[C@@H](CCC(N)=O)C(=O)N2 [Ex. 99] (HELM PEPTIDE1{[CCCCCC[C@H](N[*:1])C(=O)[*:2]].C.T.A.S.I.P.P.Q.C.Y.[dP].P}$PEPTIDE1,PEPTIDE1,2:R3-10:R3|PEPTIDE1,PEPTIDE1,1:R1-13:R2$$$V2.0)",0,17.4,58,30.5,7.80,5.07,0,4.07,0,0
"CCCCCCCC[C@@H]1NC(=O)[C@@H]2CCCN2C(=O)[C@H]2CCCN2C(=O)[C@H](Cc2ccc(O)cc2)NC(=O)[C@@H]2CSSC[C@H](NC1=O)C(=O)N[C@@H]([C@@H](C)O)C(=O)N[C@@H](C)C(=O)N[C@@H](CO)C(=O)N[C@@H]([C@@H](C)CC)C(=O)N1CCC[C@H]1C(=O)N1CCC[C@H]1C(=O)N[C@@H](CCC(N)=O)C(=O)N2 [Ex. 102] (HELM PEPTIDE1{[CCCCCCCC[C@H](N[*:1])C(=O)[*:2]].C.T.A.S.I.P.P.Q.C.Y.[dP].P}$PEPTIDE1,PEPTIDE1,2:R3-10:R3|PEPTIDE1,PEPTIDE1,1:R1-13:R2$$$V2.0)",0,0.5,55,0,7.89,5.30,0,< 4.00,0,1.7
"CC[C@H](C)[C@@H]1NC(=O)[C@H](CO)NC(=O)[C@H](C)NC(=O)[C@H]([C@@H](C)O)NC(=O)[C@@H]2CSSC[C@H](NC(=O)[C@H](CCC(N)=O)NC(=O)[C@@H]3CCCN3C(=O)[C@@H]3CCCN3C1=O)C(=O)N[C@@H](Cc1ccc(O)cc1)C(=O)N1CCC[C@@H]1C(=O)N1CCC[C@H]1C(=O)N[C@@H](CCc1ccccc1)C(=O)N2 [Ex. 103] (HELM PEPTIDE1{[O=C([C@H](CCc1ccccc1)N[*:1])[*:2]].C.T.A.S.I.P.P.Q.C.Y.[dP].P}$PEPTIDE1,PEPTIDE1,2:R3-10:R3|PEPTIDE1,PEPTIDE1,1:R1-13:R2$$$V2.0)",3,9.6,47,6.4,7.74,5.37,0,< 4.00,0.6,10.2
